Molecular target: FTase (Homo sapiens, UniProt P49354+P49356)
Experiment: in vitro assay measuring the inhibition of FTase (FPT IC50), methods of WO95/10516
Assay type: biochemical
Details: concentration of compound which inhibits 50% of FPT transferase
Excerpt: Measurements of pharmacological activity of the present compounds can be made based upon a […] (i.e. FPT lC50), cell mat assay (GGPT lC50) or in vitro tumor activity (Cos Cell lC50) as described by the methods in W095/10516.
FPT lC50 values refer to concentration, in micromoles (µM), of compound which inhibits 50% of FPT transferase

FTase, sequence (P49356 whole entry, one chain of several): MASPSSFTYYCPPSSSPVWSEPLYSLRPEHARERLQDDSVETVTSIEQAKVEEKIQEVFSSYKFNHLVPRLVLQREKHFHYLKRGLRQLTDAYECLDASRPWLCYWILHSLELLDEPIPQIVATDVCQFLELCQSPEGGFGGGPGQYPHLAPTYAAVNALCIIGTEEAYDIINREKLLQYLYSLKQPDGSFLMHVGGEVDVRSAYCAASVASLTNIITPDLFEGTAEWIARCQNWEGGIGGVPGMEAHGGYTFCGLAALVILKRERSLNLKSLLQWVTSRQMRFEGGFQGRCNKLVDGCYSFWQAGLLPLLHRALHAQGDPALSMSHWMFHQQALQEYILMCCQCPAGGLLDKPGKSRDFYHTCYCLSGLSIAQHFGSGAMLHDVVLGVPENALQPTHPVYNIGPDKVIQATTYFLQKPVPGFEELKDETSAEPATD

IC50: > 50 µM
SMILES: CC(C)NC(=O)CC1CN(C(=O)c2ccc3ccccc3c2)CCN1C(=O)Cc1ccncc1 (stereo not shown)

Source: EP0820452B1, “CARBONYL-PIPERAZINYL AND PIPERIDINIL COMPOUNDS WHICH INHIBIT FARNESYL PROTEIN TRANSFERASE” (SCHERING CORPORATION, priority 1995, dated 1996)
